Tests used:
[1] = Chemical stability of Compound 1-A at 25° C./60% RH and 40° C./75% RH over 6 months; type: physicochemical; conditions: for Increase of percent of water: over 6 months
Method: The container closure system for the study was a combination medicinal valve bag with a pharmaceutical laminated film over the pouch and desiccant silica gel between the two layers. […] Bags were then stored at 25° C./60% RH (relative humidity) and 40° C./75% RH (relative humidity). Organic purity, water content, ^1HNMR, DSC and Raman were measured at Time 0, Month 1, Month 2, Month 3 and Month 6.
The sample was dissolved in acetonitrile—water (90:10) (v/v). The gradient method is shown below.

[2] = Ambient stability (25 ± 2° C./60 ± 5% RH) of Compound 1-A over 9 months; type: physicochemical
Method: (§1) Three conditions were tested: accelerated stability (40±2° C./[…]) over a 6-month time period, ambient stability (25±2° C./[…]) over a 9-month period, and stability under refrigerator conditions (5±3° C.) over a 9-month time period. The results for accelerated stability, ambient stability, and refrigerator conditions are shown in Table 23, Table 24, and Table 25, respectively.

[3] = Plasma levels of Compound 1 and metabolites after single oral dose of Compound 1-A, dog; type: in vivo
[4] = Accelerated stability (40 ± 2° C./75 ± 5% RH) of Compound 1-A over 6 months; type: physicochemical
Method: as §1

[5] = Plasma levels of Compound 1 and metabolites after single oral dose of Compound 1-A, rat; type: in vivo; conditions: 500 mg/kg single oral dose
HCV = assay: Emax model: HCV RNA reduction on day 7 against AUC of metabolite 1-7; type: in vivo, human; conditions: after 7 days QD dosing, metabolite 1-7 exposures ≥2000 ng/mL×h
[6] = Three-part study (Parts C, D, E) of Compound 1-A: overall safety/tolerability and pharmacokinetics; type: in vivo, human
Method: Part C was a randomized, double-blind, placebo-controlled MAD study divided into three cohorts. […] The dose escalation only proceeded following satisfactory review of the data.
HCV-infected patients were treatment-naïve with HCV RNA ≥5 log 10 IU/mL. […] Plasma drug levels were measured using LC-MS/MS.

[7] = Head-to-head comparison of Compound 1 and Compound 1-A in dogs: plasma levels; type: in vivo; conditions: dog plasma
Method: A head-to-head comparison of dogs dosed with Compound 1 and Compound 1-A was conducted.

[8] = Heart and liver tissue levels of active triphosphate 4 hours after oral Compound 1-A, monkey; type: in vivo; conditions: 4 hours after single oral dose
Method: High levels of the active TP were measured in the liver of all species tested.

[9] = 25° C., Month 1, compared with Day 0
[10] = 25° C., Month 2, compared with Day 0
[11] = 25° C., Month 3, compared with Day 0
[12] = 25° C., Month 6, compared with Day 0
[13] = 40° C., Month 1, compared with Day 0
[14] = 40° C., Month 2, compared with Day 0
[15] = 40° C., Month 3, compared with Day 0
[16] = 40° C., Month 6, compared with Day 0
[17] = 25 ± 2° C./60 ± 5% RH, 1st month
[18] = 25 ± 2° C./60 ± 5% RH, 3rd month
[19] = 25 ± 2° C./60 ± 5% RH, 6th month
[20] = 25 ± 2° C./60 ± 5% RH, 9th month
[21] = Dog, 30 mg/kg single oral dose, plasma

With `CNc1nc(N)nc2c1ncn2[C@@H]1O[C@H](CO[P@@](=O)(N[C@@H](C)C(=O)OC(C)C)Oc2ccccc2)[C@@H](O)[C@@]1(C)F` [Compound 1-A, isopropyl ((S)-(((2R,3R,4R,5R)-5-(2-amino-6-(methylamino)-9H-purin-9-yl)-4-fluoro-3-hydroxy-4-methyltetrahydrofuran-2-yl)methoxy) (phenoxy)phosphoryl)-L-alaninate hemisulfate] the “Maximum Impurity Percent” value ([1]; 25° C., Day 0) was 0.12%, the “Percent Purity” value ([1]; 25° C., Day 0) was 99.82% and the “Percent Water” value ([1]; 25° C., Day 0) was 1.2%. The “Maximum Impurity Percent” value ([1]; 25° C., Month 1) was 0.12%, the “Percent Purity” value ([1]; 25° C., Month 1) was 99.77% and the “Percent Water” value ([1]; 25° C., Month 1) was 1.9%. The DSC [1, 9] was “The same”, the Raman [1, 9] was “The same” and the “^1HNMR” value [1, 9] was “The same”. For the same compound, the “Maximum Impurity Percent” value ([1]; 25° C., Month 2) was 0.12%, the “Percent Purity” value ([1]; 25° C., Month 2) was 99.75% and the “Percent Water” value ([1]; 25° C., Month 2) was 1.8%. The DSC [1, 10] was “The same”, the Raman [1, 10] was “The same” and the “^1HNMR” value [1, 10] was “The same”. The “Maximum Impurity Percent” value ([1]; 25° C., Month 3) was 0.12%, the “Percent Purity” value ([1]; 25° C., Month 3) was 99.75% and the “Percent Water” value ([1]; 25° C., Month 3) was 1.8%. The DSC [1, 11] was “The same”, the Raman [1, 11] was “The same” and the “^1HNMR” value [1, 11] was “The same”. The “Maximum Impurity Percent” value ([1]; 25° C., Month 6) was 0.13%, the “Percent Purity” value ([1]; 25° C., Month 6) was 99.74% and the “Percent Water” value ([1]; 25° C., Month 6) was 1.8%. The DSC [1, 12] was “The same”, the Raman [1, 12] was “The same” and the “^1HNMR” value [1, 12] was “The same”. The “Increase of percent of water” value ([1]; 25° C.) was “approximately 0.6%”, the “Maximum Impurity Percent” value ([1]; 40° C., Day 0) was 0.12% and the “Percent Purity” value ([1]; 40° C., Day 0) was 99.82%. The “Percent Water” value ([1]; 40° C., Day 0) was 1.2%, the “Maximum Impurity Percent” value ([1]; 40° C., Month 1) was 0.12% and the “Percent Purity” value ([1]; 40° C., Month 1) was 99.71%. For the same compound, the “Percent Water” value ([1]; 40° C., Month 1) was 2.0%, the DSC [1, 13] was “The same” and the Raman [1, 13] was “The same”. For the same compound, the “^1HNMR” value [1, 13] was “The same”, the “Maximum Impurity Percent” value ([1]; 40° C., Month 2) was 0.12% and the “Percent Purity” value ([1]; 40° C., Month 2) was 99.63%. For the same compound, the “Percent Water” value ([1]; 40° C., Month 2) was 1.9%, the DSC [1, 14] was “The same” and the Raman [1, 14] was “The same”. The “^1HNMR” value [1, 14] was “The same”, the “Maximum Impurity Percent” value ([1]; 40° C., Month 3) was 0.12% and the “Percent Purity” value ([1]; 40° C., Month 3) was 99.58%. For the same compound, the “Percent Water” value ([1]; 40° C., Month 3) was 1.9%, the DSC [1, 15] was “The same” and the Raman [1, 15] was “The same”. For the same compound, the “^1HNMR” value [1, 15] was “The same”, the “Maximum Impurity Percent” value ([1]; 40° C., Month 6) was 0.14% and the “Percent Purity” value ([1]; 40° C., Month 6) was 99.30%. For the same compound, the “Percent Water” value ([1]; 40° C., Month 6) was 1.9%, the DSC [1, 16] was “The same” and the Raman [1, 16] was “The same”. For the same compound, the “^1HNMR” value [1, 16] was “The same”, the “Increase of percent of water” value ([1]; 40° C.) was “approximately 0.7%” and the Appearance ([2]; 25 ± 2° C./60 ± 5% RH, 0 month) was “White”. The Assay ([2]; 25 ± 2° C./60 ± 5% RH, 0 month) was 98.8%, the IR ([2]; 25 ± 2° C./60 ± 5% RH, 0 month) was “correspond” and the “Related Substance 1 Any other single impurity” value ([2]; 25 ± 2° C./60 ± 5% RH, 0 month) was 0.01%. The “Related Substance 1 Total Impurities” value ([2]; 25 ± 2° C./60 ± 5% RH, 0 month) was 0.01%, the Water ([2]; 25 ± 2° C./60 ± 5% RH, 0 month) was 0.45% and the Appearance [2, 17] was “White”. For the same compound, the Assay [2, 17] was 101.1%, the “Related Substance 1 Any other single impurity” value [2, 17] was 0.01% and the “Related Substance 1 Total Impurities” value [2, 17] was 0.02%. The Water [2, 17] was 0.19%, the Appearance [2, 18] was “White” and the Assay [2, 18] was 99.6%. The IR [2, 18] was “correspond”, the “Related Substance 1 Any other single impurity” value [2, 18] was 0.03% and the “Related Substance 1 Impurity B” value [2, 18] was 0.03%. For the same compound, the “Related Substance 1 Impurity F” value [2, 18] was 0.02%, the “Related Substance 1 Total Impurities” value [2, 18] was 0.11% and the Water [2, 18] was 0.29%. For the same compound, the Appearance [2, 19] was “White solid”, the Assay [2, 19] was 99.7% and the IR [2, 19] was “correspond”. The “Related Substance 1 Any other single impurity” value [2, 19] was 0.02%, the “Related Substance 1 Impurity F” value [2, 19] was 0.01% and the “Related Substance 1 Total Impurities” value [2, 19] was 0.05%. For the same compound, the Water [2, 19] was 0.46%, the Appearance [2, 20] was “Off-white” and the Assay [2, 20] was 100.9%. The IR [2, 20] was “correspond”, the “Related Substance 1 Any other single impurity” value [2, 20] was 0.02% and the “Related Substance 1 Total Impurities” value [2, 20] was 0.02%. The Water [2, 20] was 0.20%, the percentage of water ([2]; after 9 months) was 0.2000 and the “total related substance 1 impurities” value ([2]; after 9 months) was 0.02%. For the same compound, the “Compound 1 Cmax” value [3, 21] was 1530 ng/mL, the Tmax [3, 21] was 15 to 60 min and the “Compound 1 Tmax” value ([3]; Dog, 100 mg/kg single oral dose, plasma) was 30 to 60 min. For the same compound, the “vomiting (animals affected)” value ([3]; dogs, high dose group) was 5/5, the Appearance ([4]; 0 month) was “White” and the Assay ([4]; 0 month) was 98.8%. For the same compound, the IR ([4]; 0 month) was “correspond”, the “Related Substance 1 Any other single impurity” value ([4]; 0 month) was 0.01% and the “Related Substance 1 Total Impurities” value ([4]; 0 month) was 0.01%. For the same compound, the Water ([4]; 0 month) was 0.45%, the Appearance ([4]; 1st month) was “White” and the Assay ([4]; 1st month) was 101.5%. The “Related Substance 1 Any other single impurity” value ([4]; 1st month) was 0.02%, the “Related Substance 1 Total Impurities” value ([4]; 1st month) was 0.02% and the Water ([4]; 1st month) was 0.21%. For the same compound, the Appearance ([4]; 3rd month) was “White”, the Assay ([4]; 3rd month) was 99.6% and the IR ([4]; 3rd month) was “correspond”. For the same compound, the “Related Substance 1 Any other single impurity” value ([4]; 3rd month) was 0.01%, the “Related Substance 1 Total Impurities” value ([4]; 3rd month) was 0.02% and the Water ([4]; 3rd month) was 0.36%. For the same compound, the Appearance ([4]; 6th month) was “White”, the Assay ([4]; 6th month) was 99.5% and the IR ([4]; 6th month) was “correspond”. The “Related Substance 1 Any other single impurity” value ([4]; 6th month) was 0.05%, the “Related Substance 1 Impurity F” value ([4]; 6th month) was 0.01% and the “Related Substance 1 Total Impurities” value ([4]; 6th month) was 0.08%. The “Related Substance 2 Impurity G” value ([4]; 6th month) was “no detection”, the Water ([4]; 6th month) was 0.41% and the “Chemical stability (overall conclusion)” value ([4]; accelerated, ambient and refrigerator studies) was “very chemically stable”. For the same compound, the “Compound 1 AUC0-last” value [5] was 60.9 ng·h/mL, the “Compound 1 Cmax” value [5] was 70.5 ng/mL and the “Compound 1 Tmax” value [5] was 15 min. For the same compound, the “predicted maximal viral load reduction” value (HCV) was “at least 4 log units”, the “impact of mild hepatic impairment on PK” value ([6]; based on plasma exposures) was “did not significantly impact” and the “low-grade lipid abnormalities (cholesterol and triglyceride increase)” value ([6]; compared to placebo) was “higher incidence”. For the same compound, the tolerability ([6]; up to 600 mg salt form for seven days) was “well tolerated”, the “AUC(0-4 hr) of metabolite 1-7 compared to dosing with Compound 1” value [7] was “twice as great” and the “Mean Dose-normalized AUC(0-4 hr) for Compound 1” value ([7]; normalized to a dose of 25 mg/kg, 25 mg/kg) was 1.0 µM·h. For the same compound, the “active TP (metabolite 1-6) level in heart” value [8] was “unquantifiable levels” and the “active TP (metabolite 1-6) level in liver” value [8] was “High levels”.

Source: patent US20260091050A1, “ADVANTAGEOUS ANTI-HCV COMBINATION THERAPY” (Atea Pharmaceuticals, Inc., priority 2021, published 2026)
